Structures are written as SMILES.

Common to all, as to type: functional
Experiment [1] relates to Rattus norvegicus. Description: Anti-inflammatory activity in Rattus norvegicus albino (rat) assessed as carageenaan-induced paw edema at 100 mg/kg, po administered 1 hr prior to carageenaan-challenge measured at 180 min relative to control (reference value: 22.3%).
Experiment [2] concerns Rattus norvegicus. Description: Anti-inflammatory activity in Rattus norvegicus albino (rat) assessed as carageenaan-induced paw edema at 100 mg/kg, po administered 1 hr prior to carageenaan-challenge measured at 90 min relative to control (reference value: 38.7%).
The test system of experiment [3] is Rattus norvegicus. As to the kind of experiment: Anti-inflammatory activity against carageenaan-induced paw edema in Rattus norvegicus albino (rat) at 100 mg/kg, po administered 1 hr prior to carageenaan-challenge measured up to 3 hr.
The subject of experiment [4] is Rattus norvegicus. Description: Anti-inflammatory activity in Rattus norvegicus albino (rat) assessed as carageenaan-induced paw edema at 100 mg/kg, po administered 1 hr prior to carageenaan-challenge measured at 30 min relative to control (reference value: 30.1%).
Experiment [5] has as its system Rattus norvegicus. As to the kind of experiment: Anti-inflammatory activity in Rattus norvegicus albino (rat) assessed as carageenaan-induced paw edema at 100 mg/kg, po administered 1 hr prior to carageenaan-challenge measured at 120 min (reference value: 100%).
Experiment [6] concerns Rattus norvegicus. As to the kind of experiment: Anti-inflammatory activity in Rattus norvegicus albino (rat) assessed as carageenaan-induced paw edema at 100 mg/kg, po administered 1 hr prior to carageenaan-challenge measured at 90 min (reference value: 100%).
Experiment [7] relates to Rattus norvegicus. As to the kind of experiment: Anti-inflammatory activity in Rattus norvegicus albino (rat) assessed as carageenaan-induced paw edema at 100 mg/kg, po administered 1 hr prior to carageenaan-challenge measured at 30 min (reference value: 100%).

Consider `Cc1n[nH]c2nnc3nc(CCCCC(=O)O)[nH]c3c12`, for which the Activity in the experiment with Rattus norvegicus [1] worked out at 33.6%; in the experiment with Rattus norvegicus [2], 46.5%; in the experiment with Rattus norvegicus [3], 31%; in the experiment on Rattus norvegicus [4], 33.9%.
In the same order, the values of `Cc1n[nH]c2nnc3nc(-c4ccccc4)[nH]c3c12` are 14.9%, 23.4%, 30% and 14.1%.
`CC(C)Cc1ccc(C(C)C(=O)O)cc1` (centres undefined) [IBUPROFEN]: the Activity came out at 11.6% with Rattus norvegicus [5], 108% in the experiment with Rattus norvegicus [6], 101% in the experiment with Rattus norvegicus [7] and 49% in the experiment on Rattus norvegicus [3].
`Cc1n[nH]c2nnc3nc(-c4ccccc4C(=O)O)[nH]c3c12`: the Activity in the experiment with Rattus norvegicus [1] came to 20.6%; in the experiment with Rattus norvegicus [2] it was 23.3%; in the experiment on Rattus norvegicus [3], 41%; in the experiment with Rattus norvegicus [4], 15.1%.
As for `Cc1n[nH]c2nnc3nc(/C=C\c4ccccc4)[nH]c3c12`, the Activity with Rattus norvegicus [1] came to 0.4%; in the experiment with Rattus norvegicus [2] it was 6.2%; in the experiment with Rattus norvegicus [3], 35%; in the experiment on Rattus norvegicus [4] it was 3.9%.
In the same order, the values of `Cc1n[nH]c2nnc3nc(CCC(=O)O)[nH]c3c12` are 21.4%, 18.4%, 33% and 6.5%.
